Laboratory results taken from patent US20080300180A1, “Growth Hormone Secretagogue Receptor 1A Ligands” (Gastrotech Pharma A/S, priority 2004, published 2008).
“Also recorded” adds a separate entry of the source. Square brackets hold non-standard residues; d marks the D form. Ends that are not written are not given here. * marks the point of attachment. Octanoyl = CCCCCCCC(=O)*; GABA = NCCCC(=O)O

Assay: Preclinical study evaluating the long-term efficacy of subcutaneous ghrelin, GTP-5 and GTP-6 in rats (weight gain, food intake, fat pads)
Format: in vivo, rat
Conditions: for Total weight increase in the animals, Mean ± S.D.: Sprague-Dawley rats, n=8, s.c. twice daily; for Body weight gain compared with saline group (in words) / Cumulative food intake compared with control group (in words) / Epididymal fat depots (fat pad weight, in words) / Subcutaneous fat depots (fat pad weight, in words): rats, s.c. twice daily
Procedure: 48 (Sprauge-Dawley (SD) IGS BR) rats were used in the study. The animals were caged individually and fed a commercial diet, R34, from Lactamin AB, Sweden. They were given free access to water. All animals were allowed an acclimatisation period of a minimum of 7 days prior to the commencement of the experiment. The animals were separated in six groups (n=8) and treated twice daily with subcutaneous injections as follows: • Group 1. Control (NaCl). • Group 2. Positive control Ghrelin 200 μg/kg body weight/injection. • Group 3. GTP-5 50 μg/kg body weight/injection. • Group 4. GTP-5 200 μg/kg body weight/injection. • Group 5. GTP-6 50 μg/kg body weight/injection. • Group 6. GTP-6 200 μg/kg body weight/injection.
The weight of the animals, and their food and water were recorded daily. The animals were checked twice daily for change in food intake, activity and fur quality as signs of a change in general health status.
Pre-dose, day 7 and 14 the animals were anaesthetized with Isofluran and blood was collected through the orbital plexus. The blood was analysed for clinical chemistry (ASAT, ALAT, bilirubin, albumin, creatinine, LD, GGT, potassium, sodium, glucose, IgF-1, insulin and leptin) and haematology (white blood cells, red blood cells, haemoglobin, platelets and haematokrit). After blood sampling the animals were killed and epididymal, subcutaneous and retroperitoneal fat pads were dissected and weighed.

[1] = 200 μg/kg body weight/injection
[2] = 50 μg/kg body weight/injection (low dose)
[3] = 200 μg/kg body weight/injection (high dose)
[4] = 200 μg/kg body weight/injection (high dose), listed as ghrelin

| Substance | Total weight increase in the animals, Mean ± S.D. (50 μg/kg body weight/injection) [g] | Total weight increase in the animals, Mean ± S.D. [1] [g] | Body weight gain compared with saline group (in words) [2] | Cumulative food intake compared with control group (in words) [2] | Body weight gain compared with saline group (in words) [3] | Cumulative food intake compared with control group (in words) [3] | Epididymal fat depots (fat pad weight, in words) [3] | Subcutaneous fat depots (fat pad weight, in words) [3] | Body weight gain compared with saline group (in words) [4] | Cumulative food intake compared with control group (in words) [4] | Subcutaneous fat depots (fat pad weight, in words) [2] |
| --- | --- | --- | --- | --- | --- | --- | --- | --- | --- | --- | --- |
| GABAS(CO-C7 H15)FLSPEHQRVQQRKESKKPPAKLQPR ([GABA]S(Octanoyl)FLSPEHQRVQQRKESKKPPAKLQPR) [GTP-5, 27 amino acids long, octanoyl on the serine-3 sidechain (GABA = 4-aminobutyric acid)] | 75.4 ± 14.3 | 78.2 ± 16.3 | higher weight gains than saline; also recorded: associated with increases | associated with increases | higher weight gains than saline; also recorded: associated with increases | tended to eat more than the control group; also recorded: associated with increases | significant increase | significant increase; also recorded: induced an increase | – | – | – |
| Ghrelin: Positive control; 28 amino acid peptide hormone acylated on serine 3, endogenous GHS-R1a ligand (GSS(Octanoyl)FLSPEHQRVQQRKESKKPPAKLQPR; UniProt Q9UBU3 24-51, looked up) [reference compound] | – | 92.1 ± 9.0 | – | – | associated with increases | associated with increases | significant increase | significant increase; also recorded: induced an increase | gained significantly more weight than the saline group | higher cumulative food intake | – |
| bASS(CO-C7 H15)FLSPEHQRVQQRKESKKPPAKLQPR (XSSFLSPEHQRVQQRKESKKPPAKLQPR; N-terminal beta-alanine; octanoyl on Ser3) [GTP-6, 28 amino acids long, octanoyl group on serine-3 sidechain (bA = beta-alanine)] | 79.3 ± 10.0 | 77.8 ± 10.2 | higher weight gains than saline; also recorded: associated with increases | tended to eat more than the control group; also recorded: associated with increases | higher weight gains than saline; also recorded: associated with increases | tended to eat more than the control group; also recorded: associated with increases | – | significant increase; also recorded: induced an increase | – | – | significant increase; also recorded: induced an increase |
